In patent US11046647B2, “Activators of the unfolded protein response” (The Board of Trustees of the University of Illinois, priority 2018, dated 2021):

Tests used:
[1] = test system: partially BHPI-resistant T47D clones 1,3,8, and 11; assay: MTS growth assay, partially BHPI-resistant T47D clones; assay type: cell-based, human; details: 100 nM and 1 μM; 4 days
Protocol: (§1) ERα containing T47D human breast cancer cells able to survive in 1 μM BHPI were selected by clonal outgrowth. The effect of 100 nM and 1 μM BHPI and (−)-105 on growth of the (BHPI-sensitive) parental T47D cells and partially BHPI-resistant T47D clones 1,3,8, and 11 was evaluated. 4,000 cells/well were plated. Cell number was determined by MTS assay from a standard curve of absorbance versus cell number. […] Thus, in 4 days (−)-105 killed some, but not all, of the resistant cells.

TYS-Luc cells = assay: Long-term cell culture experiment (treat 2 weeks, regrow 4 weeks), MTS, TYS-Luc; assay type: cell-based, human; details: 1 μM for 2 weeks, then 4 weeks without drug
Protocol: To simulate the effect of several weeks of treatment of a tumor in a mouse xenograft, long-term cell culture experiments were performed. TYS-Luc cells (T47DERαY537S-Luc cells; ERαY537S is the most lethal ERα mutation seen in metastatic breast cancer) were plated at 4,000 cells/well in 96 well plates. […] After 2 weeks (medium change every 2 days) cell number was determined using MTS and a standard curve of absorbance versus cell number for TYS-Luc cells. Notes: (i) Bars denote the BHPI and (−)-105 arms of the experiment. No drug is present during regrow. […] This allows any surviving cells to regrow. After 4 weeks the cells were assayed using MTS. […] (Note: Visual inspection of the wells confirmed that there were no cells in the well treated for 2 weeks with active (−)-105.) To test whether the cells that regrew after BHPI treatment were resistant to BHPI they were re-treated for another cycle (BHPI Retreat) and shown to retain sensitivity to BHPI killing. (n=8 biological replicates ±SEM.

T47D, TYS and TDG cells = assay: MTS proliferation assay (4 days), T47D, TYS and TDG; assay type: cell-based, human
Protocol: FIG. 30 compares the ability of BHPI and test compounds to inhibit proliferation of T47D, TYS and TDG cells. T47D cells were in medium containing 10 FBS (which contains estrogen), TYS-4 and TDG-1 cells were in medium containing 10% cd-FBS (estrogen depleted). Cells are plated at 2,000 cells/well in 96 well plates. After 24 hours in medium containing FBS or charcoal-dextran treated FBS (depleted of endogenous estrogens), the indicated concentration of each compound (in DMSO at 1/1000th of the volume of medium) was added. After 2 days the medium was changed, and the compounds were added again. After 2 additional days (4 days total) MTS assays are used to evaluate cell proliferation. (n=6 ±S.E.M.).

[2] = test system: CaOV-3 ovarian cancer cells; assay: Automated Trypan Blue exclusion cell death assay, Caov-3; assay type: cell-based, human; details: 24 hours
Protocol: FIG. 33. 105, but not BHPI, kills therapy-resistant ovarian CaOV-3 ovarian cancer cells. (±)-105; Cell death assay: Automated Trypan Blue exclusion. (24 hours post (±)-105)
(§2) TRYPAN BLUE: For decades, viable cells have been measured by their ability to exclude the dye Trypan Blue. […] Dead cells, which have lost membrane integrity, take up the dye and are blue. Thus, the percentage of dead cells is the percentage of cells that are Trypan Blue positive out of the total cell population. Quantitative assessment of Trypan Blue uptake uses a cell counter from Fisher. Since the assay is instrument based, there is no observer bias in determining the percentage of Trypan Blue positive cells.
TRYPAN BLUE ASSAYS: Assays are performed on cells in 6 well plates: 300,000 cells are plated in each well of a 6-well plate in 3 ml of medium. After 24 hours, the DMSO vehicle or the indicated compound is added (in 1000th of the vol.) The cells incubated for an additional 24 hours, and then harvested in 0.25 ml of trypsin, followed after harvest by 0.75 ml of medium. The cells are spun down and resuspended in 100-200 μl of medium left that is over the cell pellet (resuspend cells by pipetting up and down a few times). Add 10 μl to 10 μl of trypan blue. Then 10 μl is inserted into the counting slide. […]

parental T47D cells = assay: MTS growth assay, parental T47D cells; assay type: cell-based, human; details: 100 nM and 1 μM; 4 days
Protocol: as §1

[3] = test system: ERα positive breast cancer; assay: Mouse xenograft model of ERα positive breast cancer (BHPI); assay type: in vivo; details: reasonable doses
[4] = test system: TYS-Luc and TDG-Luc cells; assay: Xenograft studies using TYS-Luc and TDG-Luc cells (BHPI); assay type: in vivo, mouse; details: after 4 weeks
From the text: In xenograft studies using TYS-Luc and TDG-Luc cells after 4 weeks the vehicle control breast tumors had roughly quadrupled in cells.

[5] = test system: ERα Negative MCF-10A cells; assay: Trypan Blue exclusion cell death assay, MCF-10A; assay type: cell-based; details: 75 nM, 24 hours
From the text: as §2
(§3) TRYPAN BLUE ASSAYS: Assays are performed on cells in 6 well plates: 300,000 cells are plated in each well of a 6-well plate in 3 ml of medium. After 24 hours, the DMSO vehicle or the indicated compound is added (in 1000th of the vol.) The cells incubated for an additional 24 hours, and then harvested in 0.25 ml of trypsin, followed after harvest by 0.75 ml of medium. The cells are spun down and resuspended in 100-200 μl of medium left that is over the cell pellet (resuspend cells by pipetting up and down a few times). Add 10 μl to 10 μl of trypan blue. Then 10 μl is inserted into the counting slide. After inserting the slide into the Fisher TC20 counting is automatic (these many cells are needed because an accurate ratio of Trypan Blue positive to Trypan Blue negative cells requires about 200 cells in the field the instrument counts).
In FIG. 28, neither the test compounds nor BHPI kill non-tumorigenic ERα Negative MCF-10A breast cells. ERα Negative MCF-10A cells were maintained for 24 hours in DMSO vehicle or 75 nM of BHPI or 75 nM of each of the indicated test compounds: 4, 6 and 105. Cell death was determined using the instrument-based Trypan Blue exclusion assay. (n=3±SEM).

[6] = test system: MCF-7Y537S (MCF-7 ERαY537S-luciferase) cells; assay: Long-term cell culture experiment, MCF-7 ERαY537S-luciferase; assay type: cell-based, human; details: conditions as FIG. 15 (1 μM)
MCF-7 cells = assay: Alamar Blue/raptinal 24-hour cell death assay, MCF-7; assay type: cell-based, human; details: 24-hour incubation, Alamar blue fluorescence
Protocol: FIG. 4. […] MCF7 (ERα) cells, 24 hour incubation, read out via Alamar Blue Fluorescence, Dead Control: Raptinal, n=3 (A, B). […] Orthotopic Mouse Xenograft breast cancers of TYS cells, Visualization by bioluminescent imaging. Treatment: 40 mg/kg daily (−)-105 for 3 days either by oral gavage or by intraperitoneal injection.
ALAMAR BLUE/RAPTINAL ASSAY: Live cells maintain a reducing environment. The non-fluorescent cell permeable ingredient of Alamar Blue® (resazurin) is taken up by cells. In living cells, it is reduced to the fluorescent compound resorufin. Using a standard curve of cell number versus fluorescence the number of live cells in a test sample can be determined. At high concentrations raptinal kills 100% of cells. The vehicle in which the test compound is dissolved is not toxic. Thus, after subtracting the blank for medium alone, the fluorescence reading for vehicle corresponds to 100% viable cells and the signal for raptinal corresponds to 0% viable cells. While this assay provides a less direct measurement of cell death than the trypan blue assay, it is more easily scaled up to large numbers of samples.
(§4) ALAMAR BLUE RAPTINAL ASSAYS: Cells were plated at 4,000-10,000 cells/well (96 well plate), usually in 50 μl of medium. After about 18 hours, an additional 50 μl of medium containing 2× the desired final concentration of the test compound (C-105) was added to each well. After 24 hours Alamar Blue reagent was added and fluorescence in the wells was read (BMG PheraStar or Molecular Devices Spectra Max M3 Microplate Reader). % relative death was determined by setting the reading for raptinal-treated cells to 100% dead cells and the reading for vehicle-treated cells to 0% dead cells.
Preparative gram-scale chiral separation of (±)-1 yields enantiopure (R)-1 and (S)-1 with opposite optical rotations (Scheme 5). […] Values were obtained after 24-hour incubation utilizing Alamar blue fluorescence assay normalized to live and death controls (vehicle and raptinal treated). (S)-1 IC50 is >1 μM. Error shown as S.E.M.

TDG cells = assay: Trypan Blue exclusion cell death assay, TDG / TDG-Luc; assay type: cell-based, human; details: 24 hours; TDG-Luc
From the text: as §2, §3
The Trypan Blue cell death assay was used to evaluate the ability of the active enantiomer of C-105 [(−)-105] to kill ERα positive TDG-Luc cells. For all studies, 300,000 TDG-Luc cells/well in 10% FBS were plated in a 6-well plate in triplicate. 24 hours after plating, the indicated concentrations the active enantiomer of (−)-105, or BHPI (top) ICI, or OHT (Lower left) or (+)-105 (lower right) were added. After 24 hours, the cells were harvested, and the % dead cells was determined by automated Trypan Blue exclusion using the Countess II automated hemocytometer. Percentage of viable cells was calculated by doing 100-(Cell Death %). (n=3±SEM).
TDG cells were incubated for 24 hours with 75 nM of BHPI or 75 nM of each of the indicated test compounds: 4, 6 and (±)-105 (enantiomers not separated). Cell death was determined using the instrument-based Trypan Blue exclusion assay. Structures are in the Synthesis section. […] (n=3±SEM).

T47D cells = details: 100, 500 and 1,000 nM; 24 hours; n=1
Protocol: One such change is loss of plasma membrane polarity. This is monitored using Annexin V. Dying cells also take up the dye propidium iodide. Propidium iodide (PI) fluoresces when it is intercalated into DNA. These assays monitor cells at specific stages of cell death.
FLOW CYTOMETRY (FITC) ASSAYS: Cells were seeded in 12-well plates, 75,000 cells/well, and allowed to adhere overnight. The next day, the indicated concentrations of raptinal (positive control), (−)-105, (±)-105, and (+)-105 were added and allowed to incubate at 37° C. for 24 hours (Final Volume: 1 ml, 0.1% DMSO). After incubation, cells were harvested and resuspended in 350 μl of cold Annexin binding buffer (10 mM HEPES, 140 mM NaCl, 2.5 mM CaCl2, pH 7.4) premixed with Annexin V-FITC and PI dyes. Samples were analyzed on a BD Biosciences LSRII flow cytometer, and data analysis was performed using FSC Express Version 5-6. Cell death was assessed relative to a DMSO treated control.
T47D, human breast cancer cells were plated at 75,000 cells/well. The next day, DMSO vehicle, 10 μM raptinal (control for 100% cell death), or 0, 50, 100 500 and 1,000 nM of BHPI or (±)-105, or 1,000 nM ICI/fulvestrant or 1,000 nM OHT was added. After 24 hours viable cells were determined by FACS using annexin V-FITC and propidium iodide dyes. (n=3 independent experiments ±SEM).
75,000 ERα positive T47D, human breast cancer cells, were plated/well. The next day, DMSO vehicle, 10 μM raptinal (control for 100% cell death), or 100 500 and 1,000 nM of (+)-105, or (−)-105 was added. After 24 hours viable cells were determined by FACS using annexin V-FITC and propidium iodide dyes. (n=1).

[7] = test system: ERα positive and ERα negative cells; assay type: cell-based
Protocol: as §4
ERα positive MCF-7 breast cancer, Caov-3 ovarian cancer and ECC-1 uterine cancer cells and ERα negative MDA-MB-231 human breast cancer cells and HeLa, human cervical carcinoma cells and MCF-10A human mammary epithelial cells were plated at 10,000 cells/well (96 well plate) in 50 μl of medium. After about 18 hours, an additional 50 μl of medium containing 2× the desired final concentration of the test compound (C-105) was added to each well (final vol. 100 μl/well). After 24 hours Alamar Blue reagent was added and fluorescence in the wells was read after 1 hour (BMG PheraStar Microplate Reader). % relative death was determined by setting the reading for 10,000 nM raptinal-treated cells to 100% dead cells and the reading for vehicle-treated cells to 0% dead cells. (Data is the average ±SEM of 3 independent experiments with 5 biological replicates for each sample within each independent experiment.)
FIG. 3 compares the ability of (±)-105 to kill ERα positive and ERα negative cells. The dose response tests the ability of (±)-105 to rapidly kill ERα positive and ERα negative cells. […] After 24 hours Alamar Blue reagent was added and fluorescence in the wells was read. % relative death was determined by setting the reading for […] raptinal-treated cells to 100% dead cells and the reading for vehicle-treated cells to 0% dead cells. […]

MCF-7 and TYS-Luc = assay: Trypan Blue cell death plus or minus 2-APB, MCF-7 and TYS-Luc; assay type: cell-based, human
Protocol: ERα positive MCF-7 and TYS-Luc were treated with DMSO vehicle (Veh), or BHPI or (−)-105 plus or minus 2-APB for the indicated times. Cells death was determined using the instrument-based Trypan Blue exclusion assay. […] This is consistent with (−)-105 inducing powerful lethal activation of the anticipatory UPR pathway. (n=3±SEM).

Cc1cccc2c1NC(=O)C2(c1ccc(O)cc1)c1ccc(O)cc1 [BHPI, reference compound]
effect on growth / cell number [1]: inhibited growth but could not stop growth of the resistant clones
regrowth of cells after drug removal (TYS-Luc cells): robust regrowth
inhibition of proliferation (T47D, TYS and TDG cells): effectively inhibit proliferation
killing of Caov-3 cells [2]: blocks growth of Caov-3 cells but does not kill them
effect on growth / cell number (parental T47D cells): blocked growth and killed many of the T47D cells
tumor growth / detectability (OVCAR-3 cells; OVCAR-3 orthotopic xenograft): strongly reduced tumor growth
tolerability in mice (OVCAR-3 cells; both xenograft studies): well tolerated
tumor growth [3]: stopped tumor growth and induced rapid and substantial tumor regression
tumor regression [4]: 97%-99.5%
cell death of MCF-10A cells [5]: neither BHPI nor any of the test compounds induce significant death

O=C1Nc2c(C(F)(F)F)cccc2C1(c1ccc(O)cc1)c1ccc(OC(F)(F)F)cc1 (single isomer, unassigned; (+)) [(+)-105, 3-(4-hydroxyphenyl)-3-(4-(trifluoromethoxy)phenyl)-7-(trifluoromethyl)indolin-2-one]
eradication of cells in long-term experiment [6]: inactive
IC50 (MCF-7 cells; normalized to vehicle and raptinal, listed as (S)-1): > 1000 nM
IC50 (MCF-7 cells; Homo sapiens, MCF7, 24 h): > 1000 nM
killing of TDG-Luc cells, dose response (TDG cells): inactive and does not kill
activity of enantiomers (cell death) (T47D cells): inactive
effect in ERα positive and ERα negative cell lines [7]: ineffective and not toxic

NCCOB(c1ccccc1)c1ccccc1 [Compound 2-APB]
block of (−)-105-induced cell death (MCF-7 and TYS-Luc; 45 and 60 min.): partially blocked
block of (−)-105-induced cell death (MCF-7 and TYS-Luc; 30 minutes): nearly completely blocked
